Assay results from patent US20040038904A1, “Method of treating multiple sclerosis” (priority 2002, published 2004).

System: progressive multiple sclerosis
Test: Monitoring of progress of treatment (clinical condition) in patient with progressive multiple sclerosis
Type: in vivo, human
Settings: epirubicin 75-100 mg iv with dexrazoxane, 12-week cycle, first and second treatment cycles
Description: Anthracyclines of the present invention can be administered in cycles over 7-week to 15-week intervals. Generally, treatment with anthracyclines is started with a 12-week cycle and the patient is monitored for progress of the treatment during the course of treatment. If the condition of the patient deteriorates between week 8 and 12 of the cycle, the treatment cycle should be shortened to, for example, 9 weeks or shorter.
A patient is diagnosed with progressive multiple sclerosis. Anthracycline therapy with epirubicin 75 mg by intravenous injection is initiated on a 12-week cycle. Prior to the administration of the anthracycline, the patient is pretreated with dexrazoxane at 750 mg by intravenous injection. The patient is monitored for progress of treatment and hematologic and non-hematologic toxicity throughout the course of treatment.

`COc1cccc2c1C(=O)c1c(O)c3c(c(O)c1C2=O)C[C@@](O)(C(=O)CO)C[C@@H]3O[C@H]1C[C@H](N)[C@@H](O)[C@H](C)O1` [epirubicin] was tested, and the “patient's clinical condition during treatment cycle” value was “deteriorates between weeks 9 and 12”.
